According to US20060167115A1, “Compositions for the preservation of timber” (priority 2003, published 2006):

Assays:
Test in all cases: Biological efficacy test (ASTM D1413-76), soil block medium
Assay type in all cases: cell-based
Gloeophyllum trabeum = system: Gloeophyllum trabeum
Experimental: (§1) The following fungi were tested: Neo-Lentinus lepideus (Brown rot fungus), Poria placenta (Brown rot fungus) and Gloeophyllum trabeum (Brown rot fungus). The preservative used was TBBA (waterborne). Seven concentrations of the preservative was used: 3.0%, 2.0%, 1.5%, 1.0%, 0.5%, 0.05% and 0.0% (w/w), i.e. the carrier solution in the absence of the preservative. All wood blocks were of Scots pine sapwood (Pinus sylvestris) with an approximate volume of 6.86 cm^3 (19 mm×19 mm×19 mm). All wood block specimens, where applicable, were vacuum impregnated with the preservative concentrations according to American standard ASTM D1413-76. • Treated test specimens: 3 (fungi)×7 (preservative concentrations)×1 (preservative)×8 (replicates)=168 test blocks • Untreated test specimens (control): 3 (fungi)×1 (preservative)×4 (replicates)=12 test blocks
(§2) After block treatments were completed, all the blocks were sterilized using ionizing radiation according to the conditions set out in American standard ASTM D1413-76. The incubation period for the test was 12 weeks.

Neo-Lentinus lepideus = system: Neo-Lentinus lepideus
Experimental: as §1, §2

Poria placenta = system: Poria placenta
Experimental: as §1, §2

[1] = TBBA waterborne 0.05% w/w, retention 0.38 kg/m^3, 12 weeks
[2] = TBBA waterborne 0.5% w/w, retention 3.86 kg/m^3, 12 weeks

## CC(C)(c1cc(Br)c(O)c(Br)c1)c1cc(Br)c(O)c(Br)c1 [TBBA, Tetrabromobisphenol A]
Gloeophyllum trabeum; [1]
  Corrected mean loss in mass (%): 42.71 (13.14) %
Gloeophyllum trabeum; TBBA waterborne 0.5% w/w, retention 3.87 kg/m^3, 12 weeks
  Corrected mean loss in mass (%): 45.02 (7.20) %
Gloeophyllum trabeum; TBBA waterborne 1.0% w/w, retention 7.73 kg/m^3, 12 weeks
  Corrected mean loss in mass (%): 5.52 (8.99) %
Gloeophyllum trabeum; TBBA waterborne 1.5% w/w, retention 11.75 kg/m^3, 12 weeks
  Corrected mean loss in mass (%): 2.232 (4.66) %
Gloeophyllum trabeum; TBBA waterborne 2.0% w/w, retention 15.62 kg/m^3, 12 weeks
  Corrected mean loss in mass (%): 0.29 (0.25) %
Gloeophyllum trabeum; TBBA waterborne 3.0% w/w, retention 23.02 kg/m^3, 12 weeks
  Corrected mean loss in mass (%): 0.13 (0.26) %
Neo-Lentinus lepideus; TBBA waterborne 0.05% w/w, retention 0.40 kg/m^3, 12 weeks
  Corrected mean loss in mass (%): 31.44 (5.65) %
Neo-Lentinus lepideus; [2]
  Corrected mean loss in mass (%): 4.55 (16.26) %
Neo-Lentinus lepideus; TBBA waterborne 1.0% w/w, retention 7.62 kg/m^3, 12 weeks
  Corrected mean loss in mass (%): 0.36 (0.19) %
Neo-Lentinus lepideus; TBBA waterborne 1.5% w/w, retention 11.61 kg/m^3, 12 weeks
  Corrected mean loss in mass (%): 0.04 (0.09) %
Neo-Lentinus lepideus; TBBA waterborne 2.0% w/w, retention 15.51 kg/m^3, 12 weeks
  Corrected mean loss in mass (%): 0.04 (0.20) %
Neo-Lentinus lepideus; TBBA waterborne 3.0% w/w, retention 23.79 kg/m^3, 12 weeks
  Corrected mean loss in mass (%): 0.11 (0.38) %
Poria placenta; [1]
  Corrected mean loss in mass (%): 31.70 (9.88) %
Poria placenta; [2]
  Corrected mean loss in mass (%): 30.27 (5.59) %
Poria placenta; TBBA waterborne 1.0% w/w, retention 7.81 kg/m^3, 12 weeks
  Corrected mean loss in mass (%): 9.65 (18.03) %
Poria placenta; TBBA waterborne 1.5% w/w, retention 11.57 kg/m^3, 12 weeks
  Corrected mean loss in mass (%): −0.12 (0.28) %
Poria placenta; TBBA waterborne 2.0% w/w, retention 15.72 kg/m^3, 12 weeks
  Corrected mean loss in mass (%): −0.29 (0.26) %
Poria placenta; TBBA waterborne 3.0% w/w, retention 23.22 kg/m^3, 12 weeks
  Corrected mean loss in mass (%): −0.71 (0.14) %
